Data as given in publication PMC11035515 (Drugs in R&D, 2023).
“And” between values parts separate entries of the source, which are not always exact repeats. Equal entries are not always repeated. Marks after values point to notes of the source that are not given here.

Key:
[1] = Study 1; type: in vivo, human; conditions: single 25-mg oral dose of [14C]-esmethadone
[2] = cited from earlier work
[3] = molecular target: T1, CYP2D6 (Homo sapiens, UniProt P10635); test: Study 2; conditions: for Increase of exposure (AUC) by esmethadone: dextromethorphan + esmethadone 75 mg vs dextromethorphan alone; for Cmax: po; for CL/F: mean ± SD
T1 sequence (P10635 whole entry): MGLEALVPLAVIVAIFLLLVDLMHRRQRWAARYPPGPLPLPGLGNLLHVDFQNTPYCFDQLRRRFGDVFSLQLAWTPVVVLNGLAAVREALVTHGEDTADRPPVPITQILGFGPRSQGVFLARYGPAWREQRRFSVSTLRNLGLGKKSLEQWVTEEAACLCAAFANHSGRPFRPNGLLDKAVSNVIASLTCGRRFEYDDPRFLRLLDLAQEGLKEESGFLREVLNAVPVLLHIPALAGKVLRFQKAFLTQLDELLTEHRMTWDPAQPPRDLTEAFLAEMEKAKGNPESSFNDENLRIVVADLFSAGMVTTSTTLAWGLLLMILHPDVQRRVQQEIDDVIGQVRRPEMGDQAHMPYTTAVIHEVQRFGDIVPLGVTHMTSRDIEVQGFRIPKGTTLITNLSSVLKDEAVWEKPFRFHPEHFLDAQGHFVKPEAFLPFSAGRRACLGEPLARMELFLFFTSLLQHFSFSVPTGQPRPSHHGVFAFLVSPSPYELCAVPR

[4] = test system: CYP1A2; test: in vitro; type: in vitro ADME; conditions: human
[5] = test system: CYP2B6; test: in vitro; type: in vitro ADME; conditions: human
[6] = test system: CYP2C8; test: in vitro; type: in vitro ADME; conditions: human
[7] = test system: CYP2C9; test: in vitro; type: in vitro ADME; conditions: human
[8] = test system: CYP3A4; test: CYP3A4 induction in cryopreserved human hepatocytes; type: in vitro ADME; conditions: mean of three donors
[9] = molecular target: OCT1 (Homo sapiens, UniProt O15245); test: Uptake transporter assay in transfected HEK293 cells, OCT1 inhibition; type: in vitro ADME
[10] = molecular target: P-glycoprotein (P-gp) (Homo sapiens, UniProt P08183); test: Efflux transporter assay in Caco-2 cells, P-gp inhibition; type: in vitro ADME
[11] = molecular target: CYP1A2 (Homo sapiens, UniProt P05177); conditions: HLM, esmethadone 0.2–200 μM
[12] = molecular target: T2, CYP2B6 (Homo sapiens, UniProt P20813); conditions: HLM, esmethadone 0.2–200 μM
[13] = molecular target: T3, CYP2C8 (Homo sapiens, UniProt P10632); conditions: HLM, esmethadone 0.2–200 μM
T3 sequence (P10632 whole entry): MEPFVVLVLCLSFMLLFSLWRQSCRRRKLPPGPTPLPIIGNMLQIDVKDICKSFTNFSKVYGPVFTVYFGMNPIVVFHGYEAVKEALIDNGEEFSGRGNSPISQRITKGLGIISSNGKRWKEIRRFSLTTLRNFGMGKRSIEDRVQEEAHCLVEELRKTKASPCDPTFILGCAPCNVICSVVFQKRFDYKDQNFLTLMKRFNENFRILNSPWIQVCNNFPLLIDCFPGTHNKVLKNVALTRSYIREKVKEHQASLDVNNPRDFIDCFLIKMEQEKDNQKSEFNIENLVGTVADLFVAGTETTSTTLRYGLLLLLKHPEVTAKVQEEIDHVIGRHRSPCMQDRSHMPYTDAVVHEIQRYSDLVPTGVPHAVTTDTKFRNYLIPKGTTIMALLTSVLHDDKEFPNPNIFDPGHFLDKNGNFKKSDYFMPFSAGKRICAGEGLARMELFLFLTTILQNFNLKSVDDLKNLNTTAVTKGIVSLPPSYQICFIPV

[14] = molecular target: T4, CYP2C9 (Homo sapiens, UniProt P11712); conditions: HLM, esmethadone 0.2–200 μM
T4 sequence (P11712 whole entry): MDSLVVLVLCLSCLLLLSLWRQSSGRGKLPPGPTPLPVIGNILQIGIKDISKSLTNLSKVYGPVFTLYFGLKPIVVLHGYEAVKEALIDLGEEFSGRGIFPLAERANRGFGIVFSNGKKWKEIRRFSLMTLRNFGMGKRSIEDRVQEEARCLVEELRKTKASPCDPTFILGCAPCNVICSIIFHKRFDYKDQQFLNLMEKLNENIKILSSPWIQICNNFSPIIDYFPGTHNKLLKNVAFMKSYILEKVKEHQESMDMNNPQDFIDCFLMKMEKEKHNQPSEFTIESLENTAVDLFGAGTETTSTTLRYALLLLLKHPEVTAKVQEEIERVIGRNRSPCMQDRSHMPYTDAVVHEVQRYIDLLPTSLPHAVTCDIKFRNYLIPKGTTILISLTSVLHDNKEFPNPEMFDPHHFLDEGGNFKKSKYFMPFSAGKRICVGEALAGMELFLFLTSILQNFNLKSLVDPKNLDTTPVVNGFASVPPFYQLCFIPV

[15] = molecular target: T5, CYP2C19 (Homo sapiens, UniProt P33261); conditions: HLM, esmethadone 0.2–200 μM
T5 sequence (P33261 whole entry): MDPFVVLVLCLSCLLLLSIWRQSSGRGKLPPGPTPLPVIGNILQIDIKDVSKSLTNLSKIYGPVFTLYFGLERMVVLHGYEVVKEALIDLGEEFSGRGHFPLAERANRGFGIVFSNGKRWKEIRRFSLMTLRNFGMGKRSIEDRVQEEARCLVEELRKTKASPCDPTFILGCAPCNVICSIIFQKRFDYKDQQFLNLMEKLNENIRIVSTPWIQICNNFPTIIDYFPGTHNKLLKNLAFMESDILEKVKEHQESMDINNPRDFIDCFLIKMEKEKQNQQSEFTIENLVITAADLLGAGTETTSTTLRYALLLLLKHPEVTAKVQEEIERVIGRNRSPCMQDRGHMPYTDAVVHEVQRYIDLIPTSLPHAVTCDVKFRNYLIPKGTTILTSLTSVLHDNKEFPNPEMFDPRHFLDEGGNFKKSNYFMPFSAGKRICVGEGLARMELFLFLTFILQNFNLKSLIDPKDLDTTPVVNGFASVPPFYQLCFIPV

[16] = molecular target: T2, CYP2B6; test: biochemical
[17] = molecular target: T3, CYP2C8; test: biochemical
[18] = molecular target: T4, CYP2C9; test: biochemical
[19] = molecular target: T5, CYP2C19; test: biochemical
[20] = molecular target: human recombinant UGT2B15 (Homo sapiens, UniProt P54855); test: Inhibition of UGT2B15 in Supersomes
human recombinant UGT2B15, sequence (P54855 24-530): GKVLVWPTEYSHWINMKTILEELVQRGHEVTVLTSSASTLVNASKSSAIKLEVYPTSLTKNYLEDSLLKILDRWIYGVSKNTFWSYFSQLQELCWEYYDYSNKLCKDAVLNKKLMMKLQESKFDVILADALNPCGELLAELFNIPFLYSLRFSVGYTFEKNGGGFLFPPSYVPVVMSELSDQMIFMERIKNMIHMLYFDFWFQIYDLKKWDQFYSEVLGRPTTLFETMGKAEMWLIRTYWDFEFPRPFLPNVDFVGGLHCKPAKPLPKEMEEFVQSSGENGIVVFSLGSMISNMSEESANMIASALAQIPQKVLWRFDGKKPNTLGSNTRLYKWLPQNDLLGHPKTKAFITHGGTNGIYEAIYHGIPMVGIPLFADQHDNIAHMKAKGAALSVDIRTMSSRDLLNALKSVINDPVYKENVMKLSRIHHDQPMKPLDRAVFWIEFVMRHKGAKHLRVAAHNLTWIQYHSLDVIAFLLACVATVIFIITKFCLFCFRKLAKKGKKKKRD

[21] = Study 2 treatment-emergent adverse events; conditions: healthy participants, alone or in combination with dextromethorphan and midazolam
[22] = molecular target: UGT1A1 (Homo sapiens, UniProt P22309); test: Inhibition of UGT1A1 in human liver microsomes
UGT1A1, sequence (P22309 26-533): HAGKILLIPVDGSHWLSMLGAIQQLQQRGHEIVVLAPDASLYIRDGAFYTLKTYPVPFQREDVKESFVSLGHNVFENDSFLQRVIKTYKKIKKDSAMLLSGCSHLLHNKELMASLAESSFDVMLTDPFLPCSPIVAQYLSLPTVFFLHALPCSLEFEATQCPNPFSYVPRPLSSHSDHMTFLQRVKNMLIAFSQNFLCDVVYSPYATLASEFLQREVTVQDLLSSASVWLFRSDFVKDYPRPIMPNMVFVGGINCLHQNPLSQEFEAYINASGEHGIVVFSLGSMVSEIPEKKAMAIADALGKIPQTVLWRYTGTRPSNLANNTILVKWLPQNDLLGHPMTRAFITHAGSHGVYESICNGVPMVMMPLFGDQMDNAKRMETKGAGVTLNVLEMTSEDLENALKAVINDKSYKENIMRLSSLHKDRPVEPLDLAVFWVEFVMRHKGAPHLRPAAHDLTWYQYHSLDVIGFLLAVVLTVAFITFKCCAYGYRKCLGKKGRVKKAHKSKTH

[23] = molecular target: UGT1A3 (Homo sapiens, UniProt P35503); test: Inhibition of UGT1A3 in human liver microsomes
UGT1A3, sequence (P35503 29-534): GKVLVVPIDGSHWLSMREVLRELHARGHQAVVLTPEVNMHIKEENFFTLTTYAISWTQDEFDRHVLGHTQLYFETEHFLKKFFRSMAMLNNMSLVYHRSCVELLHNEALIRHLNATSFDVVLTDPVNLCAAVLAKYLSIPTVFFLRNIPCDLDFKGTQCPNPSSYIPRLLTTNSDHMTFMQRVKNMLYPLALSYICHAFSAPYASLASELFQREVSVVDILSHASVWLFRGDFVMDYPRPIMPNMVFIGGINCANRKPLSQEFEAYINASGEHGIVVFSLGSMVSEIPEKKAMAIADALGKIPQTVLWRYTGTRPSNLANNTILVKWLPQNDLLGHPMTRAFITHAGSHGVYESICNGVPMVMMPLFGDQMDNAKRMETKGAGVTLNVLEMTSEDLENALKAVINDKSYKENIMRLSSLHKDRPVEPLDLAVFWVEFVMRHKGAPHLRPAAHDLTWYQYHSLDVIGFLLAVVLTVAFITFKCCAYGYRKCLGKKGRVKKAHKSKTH

[24] = molecular target: UGT1A4 (Homo sapiens, UniProt P22310); test: Inhibition of UGT1A4 in human liver microsomes
UGT1A4, sequence (P22310 29-534): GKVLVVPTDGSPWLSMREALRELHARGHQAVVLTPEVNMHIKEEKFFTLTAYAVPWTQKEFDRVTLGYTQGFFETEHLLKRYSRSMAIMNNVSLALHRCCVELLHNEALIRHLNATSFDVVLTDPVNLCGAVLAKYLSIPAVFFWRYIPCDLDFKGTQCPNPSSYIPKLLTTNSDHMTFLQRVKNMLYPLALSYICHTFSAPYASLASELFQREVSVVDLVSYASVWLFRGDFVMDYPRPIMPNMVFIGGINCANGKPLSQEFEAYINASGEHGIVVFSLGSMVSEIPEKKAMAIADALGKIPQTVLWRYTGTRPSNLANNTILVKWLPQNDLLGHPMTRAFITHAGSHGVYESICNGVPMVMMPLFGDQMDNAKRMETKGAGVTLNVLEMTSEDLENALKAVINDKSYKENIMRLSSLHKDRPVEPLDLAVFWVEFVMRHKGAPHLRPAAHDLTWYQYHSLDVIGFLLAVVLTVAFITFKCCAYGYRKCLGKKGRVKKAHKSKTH

[25] = molecular target: UGT1A6 (Homo sapiens, UniProt P19224); test: Inhibition of UGT1A6 in human liver microsomes; conditions: HLM
[26] = molecular target: UGT1A9 (Homo sapiens, UniProt O60656); test: Inhibition of UGT1A9 in human liver microsomes
UGT1A9, sequence (O60656 26-530): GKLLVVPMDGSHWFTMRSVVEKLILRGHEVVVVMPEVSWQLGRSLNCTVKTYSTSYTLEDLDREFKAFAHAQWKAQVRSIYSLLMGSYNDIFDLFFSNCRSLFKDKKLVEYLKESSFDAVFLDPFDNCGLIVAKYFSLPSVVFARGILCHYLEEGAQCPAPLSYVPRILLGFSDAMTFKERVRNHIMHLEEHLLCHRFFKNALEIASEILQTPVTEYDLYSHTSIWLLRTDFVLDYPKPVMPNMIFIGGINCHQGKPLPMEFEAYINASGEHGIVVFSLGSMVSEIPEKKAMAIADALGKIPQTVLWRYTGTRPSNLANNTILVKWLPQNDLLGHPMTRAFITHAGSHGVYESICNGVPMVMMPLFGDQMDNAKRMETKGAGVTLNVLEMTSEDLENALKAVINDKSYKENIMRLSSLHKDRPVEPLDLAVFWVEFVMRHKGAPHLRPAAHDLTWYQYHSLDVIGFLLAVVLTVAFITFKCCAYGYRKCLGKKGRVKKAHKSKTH

[27] = molecular target: UGT2B7 (Homo sapiens, UniProt P16662); test: Inhibition of UGT2B7 in human liver microsomes
[28] = Microsomal protein binding by equilibrium dialysis; conditions: 5 h at 37 °C in HLM
[29] = molecular target: CYP2A6 (Homo sapiens, UniProt P11509); test: Direct inhibition of CYP2A6 in human liver microsomes
CYP2A6, sequence (P11509 whole entry): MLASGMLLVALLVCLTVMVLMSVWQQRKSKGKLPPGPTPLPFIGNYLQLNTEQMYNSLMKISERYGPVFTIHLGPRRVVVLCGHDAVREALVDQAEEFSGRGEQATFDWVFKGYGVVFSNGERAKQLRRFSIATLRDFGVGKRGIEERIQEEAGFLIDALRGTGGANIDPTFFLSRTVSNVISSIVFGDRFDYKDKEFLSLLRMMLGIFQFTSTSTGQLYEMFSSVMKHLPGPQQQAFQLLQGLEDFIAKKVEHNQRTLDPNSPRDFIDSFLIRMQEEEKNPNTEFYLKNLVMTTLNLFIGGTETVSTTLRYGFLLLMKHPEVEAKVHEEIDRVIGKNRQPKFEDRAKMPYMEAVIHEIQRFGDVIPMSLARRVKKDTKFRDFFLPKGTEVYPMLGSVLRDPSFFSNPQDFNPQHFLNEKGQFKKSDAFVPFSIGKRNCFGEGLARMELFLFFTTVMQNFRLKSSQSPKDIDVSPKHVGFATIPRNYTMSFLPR

[30] = Study 3; conditions: human, in vivo, 25 mg
[31] = test system: CYP3A4; test: Study 3
[32] = test system: CYP3A4; test: Study 2
[33] = molecular target: T1, CYP2D6; test: Direct inhibition of CYP2D6
[34] = mRNA levels EC50, donor 1, 72 h
[35] = mRNA levels EC50, donor 2, 72 h
[36] = mRNA levels EC50, donor 3, 72 h
[37] = IC50,u (IC50 unbound), HLM, corrected for fraction unbound
[38] = midazolam 2 mg + esmethadone 25 mg, mean ± SD
[39] = midazolam 2 mg alone, mean ± SD
[40] = midazolam + esmethadone vs midazolam alone

Compound: oxy-esmethadone glucuronide
- Percent of the total plasma radioactivity exposure through 24 h post-dose [1]: 0.473%

Compound: CCC(=O)C(CC(C)N(C)C)(c1ccccc1)c1ccccc1 (centres unmarked) [methadone]
- Higher concentration associated with a single nucleotide polymorphism of P-gp [2]: 32.9%
- Oral bioavailability, inter-subject range [2]: 36–100%
- Oral bioavailability ([2]; similar for the two enantiomers): 70–80%

Compound: CN1CC[C@@]23CCCC[C@@H]2[C@@H]1Cc1ccc(O)cc13 [dextrorphan]
- Increase of exposure (AUC) by esmethadone [3]: 3.11 fold
- AUC(0-inf) ([3]; human, plasma, oral, 30 mg): 27.2 ng·h/mL
- AUC(0-t) ([3]; human, plasma, oral, 30 mg): 26.3 ng·h/mL
- half-life ([3]; human, plasma, oral, 30 mg): 338 ± 298 min
- Cmax ([3]; human, plasma, 30 mg): 4.9 ± 2.62 ng/mL

Compound: CCC(=O)C(C[C@H](C)N(C)C)(c1ccccc1)c1ccccc1 [esmethadone]
- EC50 at 72 h [4, 34]: 25.7 µM
- EC50 at 72 h [4, 35]: 3.75 µM
- EC50 at 72 h [4, 36]: 26.3 µM
- EC50 at 72 h [5, 34]: 4.3 µM
- EC50 at 72 h [5, 35]: 5.36 µM
- EC50 at 72 h [5, 36]: 4.12 µM
- EC50 at 72 h [6, 34]: 2.85 µM
- EC50 at 72 h [6, 36]: 5.27 µM
- EC50 at 72 h [7, 34]: 1.05 µM
- EC50 at 72 h [7, 36]: 18.1 µM
- Increase of CYP3A4 enzyme activity [8]: 5.2 ± 4.8 fold
- Increase of CYP3A4 mRNA [8]: 21.4 ± 1.1 fold
- IC50 [9]: 1670 nM
- IC50 [10]: 9.28 µM
- Fecal excretion of the component [1]: no fecal excretion
- Percent of the total plasma radioactivity exposure through 24 h post-dose [1]: 70.4%
- Radioactivity excreted in urine [1]: 53.9 % of the dose
- Mean exposure (AUC0.5–24) in plasma ([1]; healthy male subjects): 1200 ng eq. h/g
- Urinary excretion of the component ([1]; mean across subjects): 13 % of the dose
- Conclusion (inhibitory activity) [11]: No
- Conclusion (inhibitory activity) [12]: Yes
- Conclusion (inhibitory activity) [13]: Yes
- Conclusion (inhibitory activity) [14]: Yes
- Conclusion (inhibitory activity) [15]: Yes
- Cmax,u, maximal unbound concentration in plasma at steady state [2]: 0.587 µM
- IC50 [16]: > 200 µM
- IC50 [17]: > 200 µM
- IC50 [18]: > 200 µM
- IC50 ([19]; IC50, HLM): 174 µM
- IC50 [19, 37]: 150 µM
- IC50 [20]: 139 µM
- Conclusion (inhibitory activity) ([20]; Supersomes): Yes
- Tolerability [21]: well tolerated
- IC50 [22]: > 200 µM
- Conclusion (inhibitory activity) ([22]; HLM): Yes
- IC50 [23]: > 200 µM
- Conclusion (inhibitory activity) ([23]; HLM): Yes
- IC50 [24]: > 200 µM
- Conclusion (inhibitory activity) ([24]; HLM): Yes
- Conclusion (inhibitory activity) [25]: No
- IC50 [26]: > 200 µM
- Conclusion (inhibitory activity) ([26]; HLM): Yes
- IC50 [27]: > 200 µM
- Conclusion (inhibitory activity) ([27]; HLM): Yes
- Stability under equilibrium dialysis testing conditions [28]: stable
- IC50 [29]: > 200 µM
- Conclusion (inhibitory activity) ([29]; HLM, esmethadone 0.2–200 μM): Yes
- Tmax [30]: 3 h
- Maximum observed concentration (text, concentration–time profiles) ([31]; esmethadone 25 mg co-administered with cobicistat): 130 ± 22.5 ng/mL
- Increase of total exposure (AUC0–inf) by cobicistat ([31]; esmethadone + cobicistat vs alone): 32%
- AUC(0-inf) ([31]; human, in vivo, 25 mg): 4430 ± 1370 ng·h/mL
- AUC(0-t) ([31]; human, in vivo, 25 mg): 4100 ± 1210 ng·h/mL
- Cmax ([31]; human, in vivo, po, 25 mg): 131 ± 31.5 ng/mL
- Effect of esmethadone on CYP3A4 activity ([32]; clinical, esmethadone 25 mg once daily): negligible effect
- CYP2D6 inhibitor category (FDA guidelines) ([3]; clinical, esmethadone 75 mg loading dose): moderate inhibitor of CYP2D6
- Type of inhibition ([33]; HLM): mixed (competitive and non-competitive) inhibition
- Conclusion (inhibitory activity) ([33]; HLM, esmethadone 0.2–200 μM): Yes
- IC50 ([33]; IC50, HLM, dextromethorphan O-demethylase): 9.6 µM and 9.63 µM
- IC50 [33, 37]: 8.28 µM
- Ki ([33]; Ki, HLM, five substrate concentrations 2–50 μM): 2020 nM
- Ki ([33]; Ki,u (unbound Ki), HLM, corrected for fraction unbound): 1740 nM

Compound: Cc1ncc2n1-c1ccc(Cl)cc1C(c1ccccc1F)=NC2 [midazolam, reference compound]
- AUC(0-inf) ([32]; human, in vivo, 2 mg): 26.8 ng·h/mL
- AUC(0-t) ([32]; human, in vivo, 2 mg): 25.5 ng·h/mL
- Tmax ([32]; human, in vivo, 2 mg): 30 min
- Vd/F ([32]; human, in vivo, 2 mg): 571 ± 182 L
- half-life ([32]; human, in vivo, 2 mg): 307 ± 115 min
- Cmax ([32]; human, in vivo, po, 2 mg): 11.5 ng/mL
- CL/F [32, 38]: 84.5 ± 27.5 L/h
- CL/F [32, 39]: 83.8 ± 27.9 L/h

Compound: COc1ccc2c(c1)[C@]13CCCC[C@@H]1[C@H](C2)N(C)CC3 [dextromethorphan]
- CL/F ([3]; dextromethorphan 30 mg + esmethadone 75 mg): 907 ± 715 L/h
- CL/F ([3]; dextromethorphan 30 mg alone): 4560 ± 3280 L/h
- Increase of exposure (AUC) by esmethadone [3]: 2.71 fold
- AUC(0-inf) ([3]; human, plasma, oral, 30 mg): 31.2 ng·h/mL
- AUC(0-t) ([3]; human, plasma, oral, 30 mg): 26.6 ng·h/mL
- Tmax ([3]; human, plasma, oral, 30 mg): 2.5 h
- Vd/F ([3]; human, plasma, oral, 30 mg): 39000 L
- half-life ([3]; human, plasma, oral, 30 mg): 429 ± 197 min
- Cmax ([3]; human, plasma, 30 mg): 2.2 ± 3.8 ng/mL

Compound: CCC(=O)C(C[C@@H](C)N(C)C)(c1ccccc1)c1ccccc1 [levomethadone]
- Time to maximum observed concentration (Tmax) ([2]; oral methadone): 3 h

Compound: OCc1ncc2n1-c1ccc(Cl)cc1C(c1ccccc1F)=NC2 [1′-hydroxymidazolam]
- Cmax ([32]; midazolam 2 mg + esmethadone 25 mg (day 19, after repeated dosing), mean ± SD): 13,100 ± 4930 pg/mL
- AUC0–inf [32, 38]: 42,700 ± 15100 h*pg/mL
- AUC0–t [32, 38]: 41,100 ± 14,500 h*pg/mL
- Tmax ([32]; midazolam 2 mg + esmethadone 25 mg, median (range)): 0.925 (0.500–2.00)* h
- AUC0–inf [32, 39]: 11,600 ± 8260 h*pg/mL
- AUC0–t [32, 39]: 10,700 ± 7360 h*pg/mL
- Tmax ([32]; midazolam 2 mg alone, median (range)): 0.500 (0.500–0.750) h
- Cmax ([32]; midazolam 2 mg oral alone (day 1), plasma, mean ± SD): 5.44 ± 3.52 ng/mL
- Increase of AUC by esmethadone [32, 40]: 3.84 fold and 3.8 fold
- Increase of Cmax by esmethadone [32, 40]: 2.4 fold
